Laboratory results reported in ChEMBL document CHEMBL3039007, “Structure-based identification of OATP1B1/3 inhibitors” (Mol Pharmacol, 2013).
Where a name gives a salt, the structure may show the parent alone.

Columns and labels:
[1] = target: T1, Solute carrier organic anion transporter family member 1B3 (Homo sapiens, UniProt Q9NPD5); conditions: chinese hamster, cho, 10 µM
T1 sequence (Q9NPD5 whole entry): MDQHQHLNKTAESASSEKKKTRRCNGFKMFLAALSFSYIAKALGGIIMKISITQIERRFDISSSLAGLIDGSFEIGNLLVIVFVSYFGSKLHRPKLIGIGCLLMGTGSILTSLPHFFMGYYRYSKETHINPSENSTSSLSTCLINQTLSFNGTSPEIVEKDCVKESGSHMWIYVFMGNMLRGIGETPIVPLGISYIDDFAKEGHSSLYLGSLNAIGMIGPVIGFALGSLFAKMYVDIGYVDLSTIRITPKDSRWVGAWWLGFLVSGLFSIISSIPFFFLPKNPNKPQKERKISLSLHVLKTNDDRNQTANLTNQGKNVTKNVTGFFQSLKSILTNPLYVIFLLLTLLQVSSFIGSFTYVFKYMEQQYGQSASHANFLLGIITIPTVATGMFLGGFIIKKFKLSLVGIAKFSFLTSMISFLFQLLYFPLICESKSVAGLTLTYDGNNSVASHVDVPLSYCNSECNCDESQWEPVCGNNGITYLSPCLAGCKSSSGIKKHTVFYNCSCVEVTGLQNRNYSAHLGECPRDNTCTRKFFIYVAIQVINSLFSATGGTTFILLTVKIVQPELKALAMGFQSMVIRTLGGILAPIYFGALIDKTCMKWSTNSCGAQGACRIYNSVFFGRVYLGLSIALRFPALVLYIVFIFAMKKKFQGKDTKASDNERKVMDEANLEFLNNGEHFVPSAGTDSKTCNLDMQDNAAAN

[2] = target: T2, Solute carrier organic anion transporter family member 1B1 (Homo sapiens, UniProt Q9Y6L6); conditions: chinese hamster, cho, 10 µM
T2 sequence (Q9Y6L6 whole entry): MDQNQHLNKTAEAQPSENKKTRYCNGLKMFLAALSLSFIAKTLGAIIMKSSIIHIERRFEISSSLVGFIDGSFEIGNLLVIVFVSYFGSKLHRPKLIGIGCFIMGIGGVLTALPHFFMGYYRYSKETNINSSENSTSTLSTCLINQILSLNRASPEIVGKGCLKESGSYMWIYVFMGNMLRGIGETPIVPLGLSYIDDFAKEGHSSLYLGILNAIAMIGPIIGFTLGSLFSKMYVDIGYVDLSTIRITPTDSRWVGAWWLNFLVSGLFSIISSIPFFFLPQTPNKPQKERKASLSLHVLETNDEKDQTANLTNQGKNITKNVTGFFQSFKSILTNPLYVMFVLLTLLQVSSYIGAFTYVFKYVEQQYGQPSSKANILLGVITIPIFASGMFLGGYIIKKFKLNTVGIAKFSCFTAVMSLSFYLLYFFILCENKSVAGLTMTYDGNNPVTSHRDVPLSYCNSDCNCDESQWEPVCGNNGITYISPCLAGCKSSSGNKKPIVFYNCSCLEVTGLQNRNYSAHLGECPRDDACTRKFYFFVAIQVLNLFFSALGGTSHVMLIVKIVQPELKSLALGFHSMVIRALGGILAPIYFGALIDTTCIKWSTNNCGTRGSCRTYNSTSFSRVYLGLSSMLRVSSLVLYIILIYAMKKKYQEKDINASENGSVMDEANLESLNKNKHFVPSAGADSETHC

Work on `CN1C(=O)CCS(=O)(=O)C1c1ccc(Cl)cc1` (centres undefined) [CHLORMEZANONE] yielded a residual activity [1] of 92% and a residual activity [2] of 97.47%.
Work on `CC(C)NNC(=O)c1ccncc1.O=S(=O)(O)O` [IPRONIAZID SULFATE] yielded a residual activity [1] of 101.8% and a residual activity [2] of 122.7%.
With `Cl.Cl.NCCCCN` [PUTRESCINE DIHYDROCHLORIDE] the residual activity [1] was 106.7% and the residual activity [2] was 110.3%.
`CN/C(=N/CCSCc1nc[nH]c1C)NC#N` [CIMETIDINE] gave a residual activity [1] of 96.42% and a residual activity [2] of 120.2%.
Work on `CC1(C)C(=O)C=C[C@]2(C)[C@H]3CC[C@@]4(C)[C@H](c5ccoc5)OC(=O)[C@H]5O[C@]54[C@]3(C)C(=O)C[C@@H]12` [DEACETOXY-7-OXOGEDUNIN] yielded a residual activity [1] of 85.14% and a residual activity [2] of 40.28%.
`CN1[C@@H](CC(=O)c2ccccc2)CCC[C@H]1C[C@H](O)c1ccccc1.Cl` [LOBELINE HYDROCHLORIDE] gave a residual activity [1] of 108.5% and a residual activity [2] of 125.6%.
In the case of `S=C=NCc1ccccc1` [BENZYL ISOTHIOCYANATE], the residual activity [1] is reported as 101.9% and the residual activity [2] is reported as 170.7%.
`COc1cc2c(c(OC)c1OC)-c1ccc(OC)c(=O)cc1[C@@H](NC(C)=O)CC2` [COLCHICINE] showed a residual activity [1] of 101% and a residual activity [2] of 75.12%.
`C#CCOS(=O)OC1CCCCC1Oc1ccc(C(C)(C)C)cc1` (centres undefined) [PROPARGITE] was tested, and the residual activity [1] was 106% and the residual activity [2] was 93.31%.
With `CN[C@@H]1[C@@H](O)[C@@H](O[C@@H]2[C@@H](O)[C@H](O[C@H]3O[C@H]([C@@H](C)O)[C@@H](O)[C@H](O)[C@H]3N)[C@@H](N)C[C@H]2N)OC[C@]1(C)O` [GENETICIN] the residual activity [1] was 105.6% and the residual activity [2] was 83.57%.
With `Cc1cc(C(C)(C)C)cc(C)c1CC1=NCCN1.Cl` [XYLOMETAZOLINE HYDROCHLORIDE] the residual activity [1] was 99.17% and the residual activity [2] was 86.29%.
`CCOC(N)=O` was tested, and the residual activity [1] was 101.6% and the residual activity [2] was 109.1%.
`COC(=O)C[C@H]1C(C)(C)C(OC(C)=O)[C@]2(O)C=C3C4CC(=O)O[C@@H](c5ccoc5)[C@]4(C)CCC3[C@@]1(C)C2=O` (some centres undefined) [HUMILIN A] gave a residual activity [1] of 34.35% and a residual activity [2] of 22.34%.
For `COc1c(-c2ccccc2)oc2c(ccc3occc32)c1=O` [KARANJIN], the residual activity [1] was 124.7% and the residual activity [2] was 50.39%.
Molecule `O=C(/C=C/C(=O)Oc1ccccc1C(=O)O)Oc1ccccc1C(=O)O` [BISSALICYL FUMARATE] has a residual activity [1] of 99.92% and a residual activity [2] of 104.8%.
With `Nc1nc(=O)c2c([nH]1)NCC(CNc1ccc(C(=O)N[C@@H](CCC(=O)[O-])C(=O)[O-])cc1)N2C=O.[Ca+2]` (some centres undefined) [LEUCOVORIN CALCIUM] the residual activity [1] was 90.54% and the residual activity [2] was 80.81%.
`CN1C(=O)CC[C@H]1c1cccnc1` [COTININE] gave a residual activity [1] of 103% and a residual activity [2] of 106.5%.
Work on `CCN(CC)C(=O)c1cccc(C)c1` [DIETHYLTOLUAMIDE] yielded a residual activity [1] of 107.2% and a residual activity [2] of 108.7%.
Work on `CN1C(C(=O)Nc2ccccn2)=C(O)c2sccc2S1(=O)=O` [TENOXICAM] yielded a residual activity [1] of 78.1% and a residual activity [2] of 78.82%.
In the case of `CC(=O)O[C@H]1C[C@@H](OC(C)=O)C(C)(C)[C@@H]2CC(=O)[C@]3(C)[C@H](CC[C@@]4(C)[C@H](C(=O)O)OC(=O)[C@H]5O[C@]543)[C@@]12C`, the residual activity [1] is reported as 72.75% and the residual activity [2] is reported as 72.69%.
`COc1cc2c(c(OC)c1OC)-c1ccc(=O)c(O)cc1[C@@H](NC(C)=O)CC2` [COLCHICEINE] was tested, and the residual activity [1] was 109.6% and the residual activity [2] was 124%.
Molecule `CC(C)[C@H](N)C(=O)OCCOCn1cnc2c(=O)[nH]c(N)nc21.Cl` [VALACYCLOVIR HYDROCHLORIDE] has a residual activity [1] of 80.91% and a residual activity [2] of 68.57%.
In the case of `CC1CCc2cc(F)cc3c(=O)c(C(=O)O)cn1c23` (centres undefined) [FLUMEQUINE], the residual activity [1] is reported as 107% and the residual activity [2] is reported as 74.99%.
`N=C(N)c1ccc(OCCCCCOc2ccc(C(=N)N)cc2)cc1.O=S(=O)(O)CCO` gave a residual activity [1] of 156% and a residual activity [2] of 99.74%.
For `CO[C@H]1C[C@H](O[C@@H]2/C(C)=C/C[C@@H]3C[C@@H](C[C@]4(CC[C@H](C)[C@@H](C5CCCCC5)O4)O3)OC(=O)[C@@H]3C=C(C)/C(=N/O)[C@H]4OC/C(=C\C=C\[C@@H]2C)[C@]43O)O[C@@H](C)[C@@H]1O` [SELAMECTIN], the residual activity [1] was 93.37% and the residual activity [2] was 98.02%.
Work on `CC(=O)O[C@@H]1C=C[C@]2(C)C(C[C@@H](OC(C)=O)[C@]3(C)C4=CC(=O)O[C@H](c5ccoc5)[C@@]4(C)CCC23)C1(C)C` (some centres undefined) [DEOXYGEDUNOL ACETATE] yielded a residual activity [1] of 49.18% and a residual activity [2] of 23.25%.
`C=C[C@](C)(O)CCC=C(C)C` [LINALOOL (+)] showed a residual activity [1] of 117.7% and a residual activity [2] of 102.5%.
`CC[C@H](C)[C@@H](NC)C(=O)O` was tested, and the residual activity [1] was 105.9% and the residual activity [2] was 122.8%.
With `CC(=O)S[C@@H]1CC2=CC(=O)CC[C@]2(C)[C@H]2CC[C@@]3(C)[C@@H](CC[C@@]34CCC(=O)O4)[C@H]12` [SPIRONOLACTONE] the residual activity [1] was 103.5% and the residual activity [2] was 52.45%.
Molecule `Cc1occc(=O)c1O` [MALTOL] has a residual activity [1] of 74.61% and a residual activity [2] of 79.28%.
`CC1=CC(=O)c2ccccc2C1=O` [MENADIONE] was tested, and the residual activity [1] was 112.1% and the residual activity [2] was 157.5%.
In the case of `CC1=CC(=O)CC(C)(C)C1(O)/C=C/C(C)=C\C(=O)O` (racemic) [ABSCISIC ACID], the residual activity [1] is reported as 92.91% and the residual activity [2] is reported as 70.85%.
`COC(=O)COc1cc(Cl)c(Cl)cc1Cl` [2,4,5-TRICHLOROPHENOXYACETIC ACID, METHYL ESTER] was tested, and the residual activity [1] was 116.4% and the residual activity [2] was 98.01%.
`CCCCNC(=O)NS(=O)(=O)c1ccc(C)cc1` [TOLBUTAMIDE] was tested, and the residual activity [1] was 99.86% and the residual activity [2] was 125.3%.
`C[C@H]1C(=O)O[C@@H]2CCN3CC=C(COC(=O)[C@](C)(O)[C@]1(C)O)[C@H]23` [MONOCROTALINE] showed a residual activity [1] of 94.85% and a residual activity [2] of 100.7%.
`Nc1ncnc2c1ncn2[C@@H]1O[C@H](COP(=O)(O)O)[C@@H](O)[C@H]1O` [ADENOSINE PHOSPHATE] was tested, and the residual activity [1] was 90.72% and the residual activity [2] was 91.52%.
For `CCOC(=O)C(=O)C1(C(=O)OCC)Oc2cc(OC)cc(OC)c2C(=O)C1c1ccccc1` (centres undefined) [2-ETHOXYCARBONYL-2-ETHOXYOXALOYLOXYDIHYDROCHRYSIN DIMETHYL ETHER], the residual activity [1] was 100.5% and the residual activity [2] was 117%.
Molecule `COC(=O)CCC(=O)O[C@H]1CC[C@@]2(C)[C@@H](CC[C@@H]3[C@@H]2C(=O)[C@@H](O)[C@]2(C)C4C(C[C@@H]32)O[C@@]2(CCC(C)CO2)[C@H]4C)C1` (some centres undefined) has a residual activity [1] of 83.53% and a residual activity [2] of 131.1%.
`COC(=O)CCCOc1ccc(Cl)cc1Cl` gave a residual activity [1] of 115.5% and a residual activity [2] of 118.1%.
In the case of `COc1ccc(CC2c3cc(OC)c(OC)cc3CCN2C)cc1OC` (centres undefined) [LAUDANOSINE], the residual activity [1] is reported as 114.7% and the residual activity [2] is reported as 107.4%.
In the case of `O=C1c2ccccc2C(=O)c2ccccc21` [ANTHRAQUINONE], the residual activity [1] is reported as 78.8% and the residual activity [2] is reported as 96.98%.
For `CCC/C=C1\OC(=O)C2=C1CCC=C2` [LIGUSTILIDE], the residual activity [1] was 107.5% and the residual activity [2] was 117.7%.
For `COc1ccc2c(c1)O[C@@H]1COc3cc(OC)c(OC)cc3[C@@H]1C2=O` [MUNDOSERONE], the residual activity [1] was 110.7% and the residual activity [2] was 118.1%.
`CC(CCc1ccccc1)NC(C)C(O)c1ccc(O)cc1.Cl` (centres undefined) [NYLIDRIN HYDROCHLORIDE] was tested, and the residual activity [1] was 116.9% and the residual activity [2] was 112.1%.
`COc1cc(O)c2c(=O)c(-c3ccccc3)coc2c1` [5-HYDROXY-7-METHOXYISOFLAVONE] showed a residual activity [1] of 104.3% and a residual activity [2] of 99.72%.
Molecule `Cn1cnc([N+](=O)[O-])c1Sc1ncnc2nc[nH]c12` [AZATHIOPRINE] has a residual activity [1] of 107.3% and a residual activity [2] of 128.4%.
`CC1(C)CC2C1CCC1(C)OC2(C)CCC1O` (centres undefined) [3,7-EPOXYCARYOPHYLLAN-6-OL] was tested, and the residual activity [1] was 80.05% and the residual activity [2] was 57.88%.
